Test results: patent US20250092065A1, “2-(INDAZOL-5-YL)-6-(PIPERIDIN-4-YL)-1,7-NAPHTHYRIDINE DERIVATIVES AND RELATED COMPOUNDS AS MODULATORS FOR SPLICING NUCLEIC ACIDS AND FOR THE TREATMENT OF PROLIFERATIVE DISEASES” (REMIX THERAPEUTICS INC., priority 2022, published 2025)
Where two headings read alike, the source gives them in different places.

What was measured:
[1] = test system: HTT mRNA; test: RT-qPCR splicing assay, HTT mRNA canonical (CJ) and alternative (AJ) junction; type: cell-based, human; conditions: Homo sapiens; for AC50: HTT alternative junction mRNA, read-out: HTT AJ (increase in AJ mRNA, AC50)
Method in brief: (§1)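 A673 or K562 cells treated 24 h at 37 °C with an 11-point 3-fold dilution series (top 10 uM, DMSO ≤0.25%). Lysates went directly to one-step RT-qPCR quantifying canonical (CJ) and alternative-exon (AJ) junctions, normalized to GAPDH, GUSB or PPIA. Values from ΔΔCt versus DMSO, RQ = 2^(−ΔΔCt), expressed as percentage response.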

[2] = test system: MYB mRNA; test: RT-qPCR splicing assay, MYB mRNA canonical (CJ) and alternative (AJ) junction; type: cell-based, human; conditions: Homo sapiens; for AC50: MYB alternative junction mRNA, read-out: MYB AJ (increase in AJ mRNA, AC50)
Method in brief: as §1

[3] = test system: MYB; test: HiBiT protein abundance assay, MYB (K562 HiBiT knock-in); type: cell-based, human; conditions: HiBiT knock-in K562 cells, 24 hours, top dose 10 μM
Method in brief: (§2)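 Tagged-protein levels were measured as HiBiT/LgBiT luminescence in lysed K562 knock-in cells exposed to serially diluted compound (up to 10 μM final) for 24 hours. A four-parameter logistic regression of control-normalized signal yielded the IC50.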

[4] = test system: HTT; test: HiBiT protein abundance assay, HTT (K562 HiBiT knock-in); type: cell-based, human; conditions: HiBiT knock-in K562 cells, 24 hours, top dose 10 μM
Method in brief: as §2

[5] = test system: K562 cells; test: Cell Titer Glo 2.0 cell viability (toxicity) assay, K562; conditions: 500 cells/well, 72 hours
[6] = HTT canonical junction mRNA, RT-qPCR, read-out: HTT CJ (decrease in CJ mRNA levels, IC50)
[7] = canonical junction qPCR panel, Table 4, read-out: HTT IC50 (decrease in CJ mRNA levels)
[8] = MYB canonical junction mRNA, RT-qPCR, read-out: MYB CJ (decrease in CJ mRNA levels, IC50)
[9] = canonical junction qPCR panel, Table 4, read-out: MYB IC50 (decrease in CJ mRNA levels)

| SMILES | IC50 [1, 6] [nM] | IC50 [1, 7] [nM] | IC50 [2, 8] [nM] | IC50 [2, 9] [nM] | IC50 [3] [nM] | IC50 [4] [nM] | AC50 ([1]; RT-qPCR) [nM] | AC50 ([2]; RT-qPCR) [nM] | Effect of Exemplary Compounds on Cell Viability, K562 [5] |
| --- | --- | --- | --- | --- | --- | --- | --- | --- | --- |
| Cc1nc2c(C)c(O)c(-c3ccc4nc(N5CC[C@@H](NC6(C)CC6)C5)ccc4n3)cc2o1 (single isomer, unassigned) [Compound 310] | < 100 | < 100 | < 100 | < 100 | < 100 | < 100 | < 100 | < 100 | A (A represents <100 nM) |
| Cc1nc2c(C)c(O)c(-c3ccc4nc(N5CC[C@H](NC6(C)CC6)C5)ccc4n3)cc2o1 (single isomer, unassigned) [Compound 311] | < 100 | < 100 | 100 to 1000 | 100 to 1000 | 100 to 1000 | < 100 | < 100 | 100 to 1000 | C (C represents 1000-9999 nM) |
| Cc1nc2c(C)c(O)c(-c3ccc4nc(N5CC[C@@H](NC(C)C)C5)ccc4n3)cc2o1 (single isomer, unassigned) [Compound 313] | < 100 | < 100 | < 100 | < 100 | < 100 | < 100 | < 100 | < 100 | A (A represents <100 nM) |
| Cc1nc2c(C)c(O)c(-c3ccc4nc(N5CC[C@H](NC(C)C)C5)ccc4n3)cc2o1 (single isomer, unassigned) [Compound 314] | < 100 | < 100 | < 100 | < 100 | < 100 | < 100 | < 100 | < 100 | A (A represents <100 nM) |
| Cn1cc2cc(-c3ccc4nc(N5CC[C@@H](NC6CCC6)C5)ccc4n3)c(O)c(F)c2n1 (single isomer, unassigned) [Compound 316] | < 100 | < 100 | < 100 | < 100 | < 100 | < 100 | < 100 | < 100 | A (A represents <100 nM) |
| Cn1cc2cc(-c3ccc4nc(N5CC[C@H](NC6CCC6)C5)ccc4n3)c(O)c(F)c2n1 (single isomer, unassigned) [Compound 317] | < 100 | < 100 | < 100 | < 100 | < 100 | < 100 | < 100 | < 100 | A (A represents <100 nM) |
| Cc1c(O)c(-c2ccc3nc(N4CC[C@@H](NC(C)C)C4)ccc3n2)cc2cn(C)nc12 (single isomer, unassigned) [Compound 319] | < 100 | < 100 | < 100 | < 100 | < 100 | < 100 | < 100 | < 100 | A (A represents <100 nM) |
| Cc1c(O)c(-c2ccc3nc(N4CC[C@H](NCC5CC5)C4)ccc3n2)cc2cn(C)nc12 (single isomer, unassigned) [Compound 321] | < 100 | < 100 | < 100 | < 100 | < 100 | < 100 | < 100 | < 100 | B (B represents 100-1000 nM) |
| Cc1c(O)c(-c2ccc3nc(N4CC[C@@H](NCC5CC5)C4)ccc3n2)cc2cn(C)nc12 (single isomer, unassigned) [Compound 322] | < 100 | < 100 | < 100 | < 100 | < 100 | < 100 | < 100 | < 100 | B (B represents 100-1000 nM) |

Continued, in another order:

| IC50 [1, 6] [nM] | IC50 [1, 7] [nM] | IC50 [2, 8] [nM] | IC50 [2, 9] [nM] | IC50 [3] [nM] | IC50 [4] [nM] | SMILES | AC50 ([1]; RT-qPCR) [nM] | AC50 ([2]; RT-qPCR) [nM] | Effect of Exemplary Compounds on Cell Viability, K562 [5] |
| --- | --- | --- | --- | --- | --- | --- | --- | --- | --- |
| < 100 | < 100 | < 100 | < 100 | < 100 | < 100 | Cc1nc2c(F)c(O)c(-c3ccc4nc(N5CC[C@@H](NCC6CC6)C5)ccc4n3)cc2o1 (single isomer, unassigned) [Compound 323] | < 100 | < 100 | A (A represents <100 nM) |
| < 100 | < 100 | < 100 | < 100 | < 100 | < 100 | Cc1nc2c(F)c(O)c(-c3ccc4nc(N5CC[C@H](NCC6CC6)C5)ccc4n3)cc2o1 (single isomer, unassigned) [Compound 324] | < 100 | < 100 | A (A represents <100 nM) |
| < 100 | < 100 | < 100 | < 100 | < 100 | < 100 | Cc1nc2c(F)c(O)c(-c3ccc4nc(N5CC[C@@H](NC(C)C)C5)ccc4n3)cc2o1 (single isomer, unassigned) [Compound 329] | < 100 | < 100 | A (A represents <100 nM) |
| < 100 | < 100 | < 100 | < 100 | < 100 | < 100 | Cc1nc2c(F)c(O)c(-c3ccc4nc(N5CC[C@H](NC(C)C)C5)ccc4n3)cc2o1 (single isomer, unassigned) [Compound 330] | < 100 | < 100 | A (A represents <100 nM) |
| < 100 | < 100 | < 100 | < 100 | < 100 | < 100 | Cn1cc2cc(-c3ccc4nc(N5CC[C@H](N[C@H]6C[C@H](F)C6)C5)ccc4n3)c(O)c(F)c2n1 (single isomer, unassigned) [Compound 347] | < 100 | < 100 | A (A represents <100 nM) |
| 100 to 1000 | 100 to 1000 | < 100 | < 100 | < 100 | < 100 | Cc1nc2cc(O)c(-c3ccc4nc(N5CC[C@@H](N[C@H]6C[C@H](F)C6)C5)ccc4n3)cc2o1 (single isomer, unassigned) [Compound 348] | 100 to 1000 | < 100 | C (C represents 1000-9999 nM) |
| < 100 | < 100 | < 100 | < 100 | < 100 | < 100 | Cn1cc2cc(-c3ccc4nc(N5CC[C@@H](N[C@H]6C[C@H](F)C6)C5)ccc4n3)c(O)c(F)c2n1 (single isomer, unassigned) [Compound 349] | < 100 | < 100 | B (B represents 100-1000 nM) |
| < 100 | < 100 | < 100 | < 100 | < 100 | < 100 | Cc1nc2c(C)c(O)c(-c3ccc4nc(N5CC[C@H](N[C@H]6C[C@H](F)C6)C5)ccc4n3)cc2o1 (single isomer, unassigned) [Compound 351] | < 100 | < 100 | B (B represents 100-1000 nM) |
